Test results reported in publication PMC11800497, “Antifungal activity and biocompatibility assessment with molecular docking and dynamic simulations of new pyrazole derivatives” (BMC Biotechnology, 2025).
Where two headings read alike, the source gives them in different places. Marks after values point to notes of the source that are not given here.

Legend:
Assay in all cases: Well-diffusion antifungal activity
[1] = system: P. chrysogenum ATCC 10106; type: cell-based, Penicillium chrysogenum; settings: for zone of inhibition at 1000 µg/mL: Penicillium chrysogenum, read-out: IZD; for AI (activity index): relative to Fluconazole 1000 µg/ml
Procedure: (§1) This study investigated strains of four distinct fungal pathogens: Aspergillus flavus ATCC 9643, A. niger ATCC 11414, Rhizopus oryzae ATCC 96382, and Penicillium chrysogenum ATCC 10106. Every strain was acquired from the Dep. of Micro. Fac. Agric., […] Uni., in Egypt. Initially kept and preserved in malt agar medium at 4 °C, the pathogens were then grown overnight at 28 °C in malt broth medium to evaluate the antifungal activity. Fungal pathogen standard inoculum was prepared by following the procedure described by. To assess the antifungal activity, the pathogens were first maintained and stored at 4 °C in malt agar medium. They were then cultured in malt broth medium for a whole night at 28 °C. According to [22], the well-diffusion technique was used to test the antifungal activity. This included using a 9.0 mm cork borer that had been sterilized to create wells in the malt agar layer. […] After adding 1000 μg/ml of control pyrazole compounds and the standard antifungal (Fluconazole 1000 μg/ml) to each well, the petri dishes were incubated at 28 °C for 72 h. The diameter of the standard reference antifungal was compared to the millimeters measurements of the inhibitory zones. The formula according to [22] was utilized to compute the activity index (AI).1 [drawing 1]

A. niger ATCC 11414 = type: cell-based, Aspergillus niger; settings: for zone of inhibition at 1000 µg/mL: Aspergillus niger, read-out: IZD; for AI (activity index): relative to Fluconazole 1000 µg/ml
Procedure: This study investigated strains of four distinct fungal pathogens: Aspergillus flavus ATCC 9643, A. niger ATCC 11414, Rhizopus oryzae ATCC 96382, and Penicillium chrysogenum ATCC 10106. Every strain was acquired from the Dep. of Micro. Fac. Agric., […] Uni., in Egypt. Initially kept and preserved in malt agar medium at 4 °C, the pathogens were then grown overnight at 28 °C in malt broth medium to evaluate the antifungal activity. Fungal pathogen standard inoculum was prepared by following the procedure described by [19, 20]. To assess the antifungal activity, the pathogens were first maintained and stored at 4 °C in malt agar medium. They were then cultured in malt broth medium for a whole night at 28 °C. According to [22], the well-diffusion technique was used to test the antifungal activity. This included using a 9.0 mm cork borer that had been sterilized to create wells in the malt agar layer. […] After adding 1000 μg/ml of control pyrazole compounds and the standard antifungal (Fluconazole 1000 μg/ml) to each well, the petri dishes were incubated at 28 °C for 72 h. The diameter of the standard reference antifungal was compared to the millimeters measurements of the inhibitory zones. The formula according to [22] was utilized to compute the activity index (AI).1 [drawing 1]

A. flavus ATCC 9643 = type: cell-based, Aspergillus flavus; settings: for zone of inhibition at 1000 µg/mL: Aspergillus flavus, read-out: IZD
Procedure: as §1

R. oryzae ATCC 96382 = type: cell-based, Rhizopus oryzae; settings: Rhizopus arrhizus, read-out: IZD
Procedure: as §1

[2] = ATCC10106, 1000 µg/ml, 72 h, 28 °C
[3] = ATCC11414, 1000 µg/ml, 72 h, 28 °C
[4] = ATCC9643, 1000 µg/ml, 72 h, 28 °C
[5] = ATCC96382, 1000 µg/ml, 72 h, 28 °C

N#C/C(=C\c1cn(-c2ccccc2)nc1-c1ccccc1)C(=O)Nc1ccc([N+](=O)[O-])cc1 [3f]
zone of inhibition at 1000 µg/mL [1, 2]: 0 mm | zone of inhibition at 1000 µg/mL (A. niger ATCC 11414; [3]): 0 mm | zone of inhibition at 1000 µg/mL (A. flavus ATCC 9643; [4]): 0 mm | zone of inhibition at 1000 µg/mL (R. oryzae ATCC 96382; [5]): 0 mm

N#Cc1c(-c2cn(-c3ccccc3)nc2-c2ccccc2)[nH][nH]c1=O [compound 7]
AI (activity index) ([1]; 1000 µg/ml): 0.56 | zone of inhibition at 1000 µg/mL [1, 2]: 13 ± 0.11 mm | zone of inhibition at 1000 µg/mL (A. niger ATCC 11414; [3]): 0 mm | zone of inhibition at 1000 µg/mL (A. flavus ATCC 9643; [4]): 0 mm | zone of inhibition at 1000 µg/mL (R. oryzae ATCC 96382; [5]): 0 mm

O=Cc1cn(-c2ccccc2)nc1-c1ccccc1 [compound 1, 1,3-diphenyl-1H-pyrazole-4-carbaldehyde]
zone of inhibition at 1000 µg/mL ([1]; ATCC10106, 72 h): 0 mm | zone of inhibition at 1000 µg/mL (A. niger ATCC 11414; ATCC11414, 72 h): 0 mm | zone of inhibition at 1000 µg/mL (A. flavus ATCC 9643; ATCC9643, 72 h): 0 mm | zone of inhibition at 1000 µg/mL (R. oryzae ATCC 96382; ATCC96382, 72 h): 0 mm

CN(C)/C=C(\C#N)C(=O)N/N=C/c1cn(-c2ccccc2)nc1-c1ccccc1 [compound 11]
zone of inhibition at 1000 µg/mL [1, 2]: 0 mm | zone of inhibition at 1000 µg/mL (A. niger ATCC 11414; [3]): 0 mm | zone of inhibition at 1000 µg/mL (A. flavus ATCC 9643; [4]): 0 mm | zone of inhibition at 1000 µg/mL (R. oryzae ATCC 96382; [5]): 0 mm

OC(Cn1cncn1)(Cn1cncn1)c1ccc(F)cc1F [Fluconazole, reference compound]
zone of inhibition at 1000 µg/mL [1, 2]: 23.1 ± 0.06 mm | zone of inhibition at 1000 µg/mL (A. niger ATCC 11414; [3]): 32 ± 0.2 mm | zone of inhibition at 1000 µg/mL (A. flavus ATCC 9643; [4]): 30.02 ± 0.05 mm | zone of inhibition at 1000 µg/mL (R. oryzae ATCC 96382; [5]): 20.99 ± 0.05 mm

N#C/C(=C\c1cn(-c2ccccc2)nc1-c1ccccc1)C(=O)Nc1ccc(Br)cc1 [3c]
zone of inhibition at 1000 µg/mL [1, 2]: 0 mm | zone of inhibition at 1000 µg/mL (A. niger ATCC 11414; [3]): 0 mm | zone of inhibition at 1000 µg/mL (A. flavus ATCC 9643; [4]): 0 mm | zone of inhibition at 1000 µg/mL (R. oryzae ATCC 96382; [5]): 0 mm

CN(C)C=C1C(=O)NN=C(c2cn(-c3ccccc3)nc2-c2ccccc2)C1=O [compound 12]
zone of inhibition at 1000 µg/mL [1, 2]: 0 mm | IZD (A. niger ATCC 11414; 1000 µg/ml, 72 h, 28 °C): 25 ± 0.08^f mm | AI (activity index) (A. niger ATCC 11414; 1000 µg/ml): 0.78 | zone of inhibition at 1000 µg/mL (A. niger ATCC 11414; [3]): 25 mm | IZD (A. flavus ATCC 9643; 1000 µg/ml, 72 h, 28 °C): 23 ± 0.02^d mm | zone of inhibition at 1000 µg/mL (A. flavus ATCC 9643; [4]): 23 mm | zone of inhibition at 1000 µg/mL (R. oryzae ATCC 96382; [5]): 0 mm

Cc1ccc(N=Nc2ccc3oc(=O)c(C(=O)NN=Cc4cn(-c5ccccc5)nc4-c4ccccc4)cc3c2)cc1 [10b]
IZD ([1]; 1000 µg/ml, 72 h, 28 °C): 20 ± 0.13^e mm | AI (activity index) ([1]; 1000 µg/ml): 0.87 | zone of inhibition at 1000 µg/mL [1, 2]: 20 mm | IZD (A. niger ATCC 11414; 1000 µg/ml, 72 h, 28 °C): 28 ± 0.12^c mm | AI (activity index) (A. niger ATCC 11414; 1000 µg/ml): 0.87 | zone of inhibition at 1000 µg/mL (A. niger ATCC 11414; [3]): 28 mm | zone of inhibition at 1000 µg/mL (A. flavus ATCC 9643; [4]): 0 mm | zone of inhibition at 1000 µg/mL (R. oryzae ATCC 96382; [5]): 0 mm

N#C/C(=C\c1cn(-c2ccccc2)nc1-c1ccccc1)C(=O)Nc1ccc(Cl)cc1 [3d]
zone of inhibition at 1000 µg/mL [1, 2]: 0 mm | zone of inhibition at 1000 µg/mL (A. niger ATCC 11414; [3]): 0 mm | zone of inhibition at 1000 µg/mL (A. flavus ATCC 9643; [4]): 0 mm | zone of inhibition at 1000 µg/mL (R. oryzae ATCC 96382; [5]): 0 mm

N#C/C(=C\c1cn(-c2ccccc2)nc1-c1ccccc1)C(=O)Nc1nccs1 [3g]
zone of inhibition at 1000 µg/mL [1, 2]: 0 mm | AI (activity index) (A. niger ATCC 11414; 1000 µg/ml): 0.56 | zone of inhibition at 1000 µg/mL (A. niger ATCC 11414; [3]): 18 ± 0.77 mm | zone of inhibition at 1000 µg/mL (A. flavus ATCC 9643; [4]): 0 mm | zone of inhibition at 1000 µg/mL (R. oryzae ATCC 96382; [5]): 0 mm

N#C/C(=C\c1cn(-c2ccccc2)nc1-c1ccccc1)C(=O)Nc1ccc(C(=O)O)cc1 [3e]
zone of inhibition at 1000 µg/mL [1, 2]: 0 mm | zone of inhibition at 1000 µg/mL (A. niger ATCC 11414; [3]): 0 mm | zone of inhibition at 1000 µg/mL (A. flavus ATCC 9643; [4]): 0 mm | zone of inhibition at 1000 µg/mL (R. oryzae ATCC 96382; [5]): 0 mm

O=C1OC(=O)c2c(Br)c(Br)c(Br)c(Br)c21 [compound 5, 4,5,6,7 tetrabromoisobenzofuran-1,3-dione]
zone of inhibition at 1000 µg/mL [1, 2]: 0 mm | zone of inhibition at 1000 µg/mL (A. niger ATCC 11414; [3]): 0 mm | zone of inhibition at 1000 µg/mL (A. flavus ATCC 9643; [4]): 0 mm | zone of inhibition at 1000 µg/mL (R. oryzae ATCC 96382; [5]): 0 mm

O=C(NN=Cc1cn(-c2ccccc2)nc1-c1ccccc1)c1cc2ccccc2oc1=O [10a]
zone of inhibition at 1000 µg/mL [1, 2]: 0 mm | zone of inhibition at 1000 µg/mL (A. niger ATCC 11414; [3]): 0 mm | zone of inhibition at 1000 µg/mL (A. flavus ATCC 9643; [4]): 0 mm | zone of inhibition at 1000 µg/mL (R. oryzae ATCC 96382; [5]): 0 mm

N#C/C(=C\c1cn(-c2ccccc2)nc1-c1ccccc1)C(=O)Nc1nc2ccccc2s1 [3h]
AI (activity index) ([1]; 1000 µg/ml): 0.65 | zone of inhibition at 1000 µg/mL [1, 2]: 15 ± 0.25 mm | zone of inhibition at 1000 µg/mL (A. niger ATCC 11414; [3]): 0 mm | zone of inhibition at 1000 µg/mL (A. flavus ATCC 9643; [4]): 0 mm | zone of inhibition at 1000 µg/mL (R. oryzae ATCC 96382; [5]): 0 mm

Cc1ccc(NC(=O)/C(C#N)=C/c2cn(-c3ccccc3)nc2-c2ccccc2)cc1 [3a]
zone of inhibition at 1000 µg/mL [1, 2]: 0 mm | zone of inhibition at 1000 µg/mL (A. niger ATCC 11414; [3]): 0 mm | zone of inhibition at 1000 µg/mL (A. flavus ATCC 9643; [4]): 0 mm | zone of inhibition at 1000 µg/mL (R. oryzae ATCC 96382; [5]): 0 mm

N#CCC(=O)NN=Cc1cn(-c2ccccc2)nc1-c1ccccc1 [compound 8]
zone of inhibition at 1000 µg/mL [1, 2]: 0 mm | zone of inhibition at 1000 µg/mL (A. niger ATCC 11414; [3]): 0 mm | zone of inhibition at 1000 µg/mL (A. flavus ATCC 9643; [4]): 0 mm | zone of inhibition at 1000 µg/mL (R. oryzae ATCC 96382; [5]): 0 mm
